In patent publication US9895353B2, “Use of L-tryptophan for the treatment of parasomnias” (Zzeemag Inc., priority 2013, dated 2018):

How the values were obtained:
[1] = system: subjects with parasomnia; experiment: Retrospective study of subjects with parasomnia (follow-up questionnaire and phone interview); format: in vivo, human
Procedure: A retrospective study was performed to evaluate the effects of L-tryoptophan on subjects with parasomnia and to look for sleep architectural differences in children before and after treatment.
Confidential charts were selected of boys and girls between the ages of 3 and 18 years with a clinical diagnosis of Parasomnias, and including behaviours of sleep walking, sleep talking, nightmares or night-terrors.
The 165 subjects that were included in the retrospective study of confidential charts were prescribed treatment with L-Tryptophan or Clonazepam, or no treatment. The exclusion criteria were children under the age 3 years or over the age 18 years and those undergoing treatment for Parasomnia at the time of the sleep study.
The diagnosis of parasomnia was made by a sleep physician and based on the clinical history together with confirmation from the polysomnographic sleep study findings.
An overnight polysomnographic sleep study and questionnaire data were collected during this study for each subject. Each of the subjects at the sleep clinic responded to a battery of questionnaires consisting of: Pediatric Daytime Sleepiness Scale (PDSS), THAT alertness scale, SNAP assessment for ADHD symptoms, Centre for Epidemiologic Studies in depression scale modified for children (CES-DC), and SCARED anxiety scale.
A follow-up questionnaire was formulated to assess for their symptoms following treatment with Tryptophan to compare values before and after treatment. A follow-up phone interview was conducted to assess the frequency of Parasomnias during and after treatment. The follow-up questionnaire included: daytime sleepiness, level of attention and concentration, ability to wake up in the morning, number of hours of sleep at night and incidence of temper tantrums.
Ninety nine (60%) of the 165 children were prescribed L-tryptophan to manage their parasomnia. The remaining were either prescribed Clonazepam (n=32) or were not prescribed anything. The latter reflected parental preference and/or clinical judgement.

[2] = system: subjects presenting with parasomnia; experiment: Case studies of subjects treated with L-tryptophan for parasomnia; format: in vivo, human
Procedure: A detailed analysis of a number of subjects presenting with parasomnia who were treated with L-tryptophan was performed. A selection of case reports of subjects treated with L-tryptophan are summarized below. Remarkably, L-tryptophan is useful for the treatment of subjects presenting with a variety of abnormal behavioral or physiological events occurring in association with sleep, specific sleep stages, or sleep-wake transition.

[3] = system: mild insomnia; conditions: lower doses (<4 g), without altering sleep architecture; cited from earlier work
[4] = children treated with L-tryptophan
[5] = out of 69 patients who took L-Tryptophan
[6] = patients aged 3-18 years who took L-Tryptophan (n=69)
[7] = patients who took L-Tryptophan (n=69)
[8] = subjects administered L-tryptophan
[9] = Case A, current dose of 1.75 mg
[10] = Case B, 3 g one hour before bedtime

Question: Which “frequency of parasomnic events” value [1, 4] does the source give for `N[C@@H](Cc1c[nH]c2ccccc12)C(=O)O` [L-tryptophan, (2S)-2-amino-3-(1H-indol-3-yl)propanoic acid] here?
Answer: reduced

Question: And the “number of arousals in sleep” value [1, 4]?
Answer: decreasing

Question: What about the “side effects observed, number of patients” value [1, 5] of the same compound?
Answer: 7

Question: And the “side effects observed, percent of patients” value [1, 5]?
Answer: 10%

Question: And the “improvement in parasomnia symptoms (B or R), number of patients” value [1, 6]?
Answer: 55

Question: What about the “improvement in parasomnia symptoms (B or R), percent of patients” value [1, 6] of the same compound?
Answer: 80%

Question: What about the “no change in parasomnia symptoms (U), number of patients” value [1, 7] of the same compound?
Answer: 10

Question: And the “no change in parasomnia symptoms (U), percent of patients” value [1, 7]?
Answer: 14%

Question: And the “worsening of parasomnia symptoms (W), number of patients” value [1, 7]?
Answer: 4

Question: And the “worsening of parasomnia symptoms (W), percent of patients” value [1, 7]?
Answer: 6%

Question: And the “alertness during the day” value [1, 8]?
Answer: increased

Question: What about the “attention during the day” value [1, 8] of the same compound?
Answer: better

Question: What about the “number of temper tantrums” value [1, 8] of the same compound?
Answer: reduced

Question: What about the daytime fatigue [2, 9] of the same compound?
Answer: less problematic

Question: And the nightly sleep talking [2, 9]?
Answer: ceased

Question: What about the “patient's sleep” value [2, 9] of the same compound?
Answer: improved

Question: What about the “time to fall asleep after retiring to bed” value [2, 9] of the same compound?
Answer: 15 to 20 min

Question: And the “daytime somnolence or fatigue” value [2, 10]?
Answer: no observation of daytime somnolence or fatigue

Question: What about the night terrors [2, 10] of the same compound?
Answer: no night terrors

Question: What about the “nightly bedwetting / enuretic episodes” value [2, 10] of the same compound?
Answer: still continues to experience nightly enuretic episodes

Question: What about the tolerability ([2]; Case B, six capsules (3 g) one hour before bedtime) of the same compound?
Answer: able to tolerate

Question: What about the daytime endurance ([2]; Case C, dosage of 2 mg) of the same compound?
Answer: improved significantly

Question: What about the sleepwalking ([2]; Case C, dosage of 2 mg) of the same compound?
Answer: No observed parasomnic behaviours of sleepwalking

Question: And the “subject's sleep” value ([2]; Case C, dosage of 2 mg)?
Answer: marked improvement

Question: And the bruxism ([2]; Case D, 2 g daily)?
Answer: declined significantly

Question: And the sleepwalking ([2]; Case D, 2 g daily)?
Answer: no episodes of sleep walking

Question: And the frequency of bedwetting ([2]; Case E, 4.5 g daily)?
Answer: declined substantially

Question: What about the “sleepwalking and sleep talking” value ([2]; Case E, 4.5 g daily) of the same compound?
Answer: no longer walked or talked in their sleep

Question: And the sleep overall ([2]; Case F, dose of 2.25 mg daily)?
Answer: improved noticeably

Question: And the tolerability ([2]; Case F, dose of 2.25 mg daily)?
Answer: tolerated L-tryptophan well

Question: And the “decrease in sleep latency” value [3]?
Answer: about half
